Earlier results as cited in patent publication US6344179B1, “Fluoralkenyl nortropanes” (Emory University, priority 1999, dated 2002).

What was measured:
[1] = test system: DAT; settings: cited from earlier work
[2] = test system: DAT; settings: non-human primates, within 2 h post injection; cited from earlier work

COC(=O)C1C(c2ccc(Cl)cc2)CC2CCC1N2C/C=C/[123I] (centres unmarked) [MMG/142, IPT]
in vitro selectivity (DA/5-HT) [1]: ~7 | striatal to cerebellum ratios [2]: 15 to 1
